± gives the expanded uncertainty stated by the source.
Conditions: Liquid; Visual observation in an unstirred cell

Structure (SMILES)	Critical temperature [K]
CC(C)N [2-propanamine]	472.5 ± 0.4
C=C(C)CCCC [2-methyl-1-hexene]	541.8 ± 1.1
C=C(C)CCC [2-methyl-1-pentene]	521 ± 0.4
CC(C)CC1CCCCC1 [2-methylpropylcyclohexane]	642.1 ± 0.6
CCC=C(C)C [2-methyl-2-pentene]	509.3 ± 0.5
C=C(C)C(C)C [2,3-dimethyl-1-butene]	497.7 ± 0.9
C/C=C\CCC [(Z)-2-hexene]	513.4 ± 0.9
C=C(C)C(C)CC (centres undefined) [2,3-dimethyl-1-pentene]	533.6 ± 4.3
C=C(C)CC [2-methyl-1-butene]	467 ± 0.5
NC1CCCCC1 [cyclohexylamine]	626.8 ± 0.9
CCCCNCCCC [dibutylamine]	607.5 ± 1.1
CCCCCCN [1-hexanamine]	592.3 ± 0.7
C=CCC(C)C [4-methyl-1-pentene]	493.1 ± 0.5
CC(C)=C(C)C [2,3-dimethyl-2-butene]	521 ± 0.9
CCCCC1CCCCC1 [butylcyclohexane]	653.1 ± 0.4
CCCCCC(C)N (centres undefined) [1-methylhexylamine]	598 ± 2.1
CC/C=C/CCC [3-heptene, (E)-]	538.6 ± 0.7
C=C(C)CCCCC [2-methyl-1-heptene]	567.5 ± 0.9
C/C=C/CCCC [2-heptene, (E)-]	542.8 ± 0.4
CCCN [propan-1-amine]	499.2 ± 0.4

Structure (SMILES)	Critical temperature [K]
CCCNCCC [dipropylamine]	555.8 ± 1.1
CCCCCCNC [1-hexanamine, N-methyl-]	592 ± 1
CCC/C=C/CCC [(E)-4-octene]	566.3 ± 1.1
C/C=C/CCCCC [(E)-2-octene]	569.8 ± 0.4
CC/C=C/CC [(E)-3-hexene]	507.4 ± 2
C/C=C/CCC [(E)-2-hexene]	509 ± 0.7
CC/C=C\CC [(Z)-3-hexene]	510.2 ± 1.4
C/C=C\CCCC [2-heptene, (Z)-]	548.5 ± 0.6
CC(C)(C)C1CCCCC1 [1,1-dimethylethylcyclohexane]	652 ± 0.4
C1CCCCC1 [cyclohexane]	553.6 ± 1.1
C=CCCC(C)C [5-methyl-1-hexene]	528.7 ± 0.4
CCCCC=C(C)C [2-methyl-2-heptene]	568.9 ± 1.1
C=CCC(C)(C)C [4,4-dimethyl-1-pentene]	516 ± 4
CC(C)C1CCCCC1 [(1-methylethyl)cyclohexane]	632.2 ± 0.4
CCCC1CCCCC1 [1-cyclohexylpropane]	630.8 ± 0.9
C=CC(C)(C)C [3,3-dimethyl-1-butene]	477.4 ± 0.9
C/C=C\C(C)C [(Z)-4-methyl-2-pentene]	496.3 ± 0.7
CCC1CCCCC1 [ethylcyclohexane]	606.9 ± 0.4
C1CCCCCCC1 [cyclooctane]	647.5 ± 0.4

From the NIST ThermoML archive (doi:10.1021/je0341357)
